Experimental data from paper PMC5078989, “Targeted inhibition of the COP9 signalosome for treatment of cancer” (Nature Communications, 2016).

Test system: panel of cancer cell lines
Experiment: Cell viability (CellTiter-Glo) dose-response across cancer cell line panel;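 on EC50: after 72 h compound incubation with CellTiter-Glo ATP readout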
Type: cell-based, human
Details: for EC50: Homo sapiens
Text: Next, we explored the effect of CSN5 inhibition on the viability of cancer cells. To obtain a comprehensive picture, we generated dose–response curves with a CSN5 inhibitor across more than 500 cancer cell lines in a previously described standardized setting[47] (Supplementary Data 1).
A standardized CellTiter-Glo Assay (Promega #G7570) based on the quantification of ATP was applied according to the manufacturer's protocol to measure the amount of viable cells in culture. In brief, cells were seeded into 384-well plates at optimal density for each cell line. After 4 h, compounds were added at different concentrations in growth medium and incubated for another 72 h in a humidifying chamber at 37 °C and 5% CO2. […] EC50 values were calculated from the plot of percentage of inhibition versus inhibitor concentration using the nonlinear regression analysis software Origin 7.5SR6 (OriginLab Corp.).

EC50 (SNU-685 cells): > 30 µM
EC50 (SNU-738 cells): 14.6 µM
EC50 (SNU-761 cells): 11.3 µM
EC50 (SNU-1040 cells): 18.9 µM
EC50 (SNU-1079 cells): 13.1 µM
EC50 (SNU-C1, SNU-C1 cells): 17.8 µM
EC50 (SNU-C2A cells): 10.7 µM
EC50 (SNU-C4, SNU-C4 cells): 13.7 µM
EC50 (SNU-C5 cells): 8.36 µM
EC50 (SR-786, SR-786 cells): 11.4 µM
EC50 (SU-DHL10, SU-DHL-10 cells): 5.76 µM
EC50 (SU-DHL-4, SU-DHL-4 cells): 10.9 µM
EC50 (SU-DHL-5, SU-DHL-5 cells): 4.35 µM
EC50 (SU-DHL-6, SU-DHL-6 cells): 6.01 µM
EC50 (SU-DHL-8, SU-DHL-8 cells): 6.55 µM
EC50 (SU.86.86, SU.86.86 cells): 10.8 µM
EC50 (SUM44PE cells): 26.1 µM
EC50 (SUM52PE, SUM52PE cells): 3.38 µM
EC50 (SUM149PT, SUM149PT cells): 10.6 µM
EC50 (SUM-159-PT, SUM159PT cells): 11.1 µM
EC50 (SUP-T1, SUP-T1 cells): 10.1 µM
EC50 (SW48, SW48 cells): 12.2 µM
EC50 (SW480, SW480 cells): 9.61 µM
EC50 (SW982, SW982 cells): 11.4 µM
EC50 (SW1088, SW 1088 cells): 10.6 µM
EC50 (SW1271, SW 1271 cells): 18.7 µM
EC50 (SW1573, SW 1573 cells): 9.37 µM
EC50 (SW1783, SW 1783 cells): > 30 µM
EC50 (SW-403, SW403 cells): 23.8 µM
EC50 (SW-620, SW620 cells): 21.8 µM
EC50 (SYO-1 cells): 11.2 µM
EC50 (Sq-1 cells): 11.8 µM
EC50 (T3M4, T3M-4 cells): 18.8 µM
EC50 (T47D, T-47D cells): 7.39 µM
EC50 (TANOUE cells): 6.4 µM
EC50 (TC-71, TC-71 cells): 9.61 µM
EC50 (TCC-PAN2 cells): 28.9 µM
EC50 (TE-6, TE-6 cells): 14 µM
EC50 (TE-11, TE-11 cells): 10.7 µM
EC50 (TE-15, TE-15 cells): 15.1 µM
EC50 (TF-1, TF-1 cells): 8.75 µM
EC50 (THP-1, THP-1 cells): 5.46 µM
EC50 (TYK-nu cells): 10.6 µM
EC50 (U266B1 cells): 9.53 µM
EC50 (U-118-MG, U-118 MG cells): 25.3 µM
EC50 (U-937, U-937 cells): 7.39 µM
EC50 (UACC-62, UACC-62 cells): 13.9 µM
EC50 (UACC-257, UACC-257 cells): 11.2 µM
EC50 (UCH1, UCH-1 cells): 14.7 µM
EC50 (UKE1, UKE1 cells): 9.11 µM
EC50 (VM-CUB-1, VM-CUB1 cells): 4.45 µM
EC50 (VMRC-LCD cells): 11 µM
EC50 (VMRC-RCW cells): 11.9 µM
EC50 (WM 266-4, WM-266-4 cells): 17.1 µM
EC50 (WM983B, WM-983B cells): 9.66 µM
EC50 (WM-88 cells): 13.6 µM
EC50 (WM-115, WM-115 cells): 7.37 µM
EC50 (WSU-WM cells): 7.7 µM
EC50 (YAPC, YAPC cells): 11.5 µM
Structure (SMILES): COCc1ccccc1NCc1ccc([C@@H]2[C@H](O)CCCc3cncn32)c(-c2ccccc2Cl)c1 [CSN5i-2e, (5R,6R)-5-(2′-chloro-5-(((2-(methoxymethyl)phenyl)amino)methyl)-[1,1′-biphenyl]-2-yl)-6,7,8,9-tetrahydro-5H-imidazo[1,5-a]azepin-6-ol]
AMAX (Hs 695T cells): -86.8488
AMAX (Hs 936.T cells): -93.4541
AMAX (HuG1-N cells): -87.0263
AMAX (HuH-7 cells): -97.6516
AMAX (IGR-37 cells): -77.0355
AMAX (IGROV1 cells): -71.2355
AMAX (IPC-298 cells): -72.365
AMAX (Ishikawa cells): -88.4272
AMAX (J82 cells): -35.798
AMAX (JHH-4 cells): -90.0924
AMAX (JHOS-2 cells): -45.7705
AMAX (JHUEM-2 cells): -96.4199
AMAX (JHUEM-3 cells): -54.8666
AMAX (JL-1 cells): -68.6834
AMAX (JVM-2 cells): -97.127
AMAX (KARPAS-422 cells): -93.641
AMAX (KATO III cells): -77.3764
AMAX (KBM-7 cells): -97.1328
AMAX (KE-97 cells): -93.3813
AMAX (KMRC-1 cells): -75.0974
AMAX (KP-1N cells): -76.285
AMAX (KP-2 cells): -93.6503
AMAX (KP-3 cells): -72.8527
AMAX (KU-19-19 cells): -88.0441
AMAX (KYSE-150 cells): -68.4693
AMAX (KYSE-180 cells): -91.1186
AMAX (Kasumi3 cells): -95.9336
AMAX (L-363 cells): -92.1173
AMAX (LC2/ad cells): -70.6199
AMAX (LCLC-103H cells): -71.5681
AMAX (MFE-280 cells): -75.2715
AMAX (MM138 cells): -91.9111
AMAX (MM415 cells): -83.1051
AMAX (MM426 cells): -57.5258
AMAX (MM485 cells): -82.1717
AMAX (MM537 cells): -84.9338
AMAX (MOLT-16 cells): -96.4687
AMAX (MeWo cells): -73.0371
AMAX (NB-1 cells): -97.6901
AMAX (NCI-H82 cells): -96.2323
AMAX (NCI-H146 cells): -95.028
AMAX (NCI-H322 cells): -82.8728
AMAX (NCI-H441 cells): -78.9188
AMAX (NCI-H810 cells): -2.884
AMAX (NCI-H841 cells): -94.3751
AMAX (NCI-H1373 cells): -93.5484
AMAX (NCI-H1568 cells): -98.9282
AMAX (NCI-H1755 cells): -88.1389
AMAX (NCI-H2023 cells): -87.7102
AMAX (NCI-H2087 cells): -85.0078
AMAX (NCI-H2452 cells): -48.2134
AMAX (ONCO-DG-1 cells): -95.499
AMAX (OUMS-23 cells): -91.7164
AMAX (OV56 cells): -92.0115
AMAX (P3HR-1 cells): -92.6521
AMAX (P12-ICHIKAWA cells): -96.1728
AMAX (PA-TU-8988T cells): -59.6796
AMAX (PANC-1 cells): -78.7196
AMAX (PC-3 cells): -66.4355
AMAX (PE/CA-PJ49 cells): -89.0883
AMAX (PF-382 cells): -96.9256
AMAX (Panc 03.27 cells): -56.1495
AMAX (Panc 04.03 cells): -74.9732
AMAX (Panc 10.05 cells): -81.9961
AMAX (RD-ES cells): -95.6768
AMAX (RT-112 cells): -70.4236
AMAX (SEM cells): -91.5844
AMAX (SF-268 cells): -46.326
AMAX (SK-ES-1 cells): -87.9534
AMAX (SK-MEL-3 cells): -63.3656
